The source of these data is patent US9650360B2, “Anti-mycobacterial drugs against tuberculosis” (priority 2012, dated 2017).

The test system of the experiment is Multidrug-Resistant Mycobacterium Tuberculosis (MDR-TB). Put plainly: microbe, parasite or virus in culture. The experiment is classed as cell-based. To be noted: read-out: minimum inhibitory concentration (MIC).

In the case of `O=C(/C=C(\O)c1cc(Cc2c(F)cc(F)cc2F)cn(Cc2ccccc2F)c1=O)C(=O)N1CCN(c2cccc3ccccc23)CC1`, the MIC was less than 1 µg/mL.
